Experimental data as given in PMC6829517 (International Journal of Molecular Sciences, 2019).
≈ marks a conversion by molar mass, not a printed value. Entries after “also recorded” stand apart in the source; their conditions may differ. Read-outs that look alike come from different tables or passages of the source. Positions of bridges follow the written chain, without caps; N, C: chain ends. Non-standard residues stand in square brackets, D forms with d. Residues, ends and D or L forms follow the SMILES beside them.

Key:
thermolysin [1] = assay: thermolysin in 50 mM TRIS pH 8, 0.5 mM CaCl2 buffer; settings: 70 °C, up to 30 min
pepsin [2] = assay: pepsin solution in HCl 0.01 M (pH 2); settings: 37 °C, up to 2-20 h
carboxypeptidase Y = carboxypeptidase Y solution in MES buffer (50 mM MES, 1 mM CaCl2 at pH 6.75); settings: 25 °C, up to 4 h
pepsin [3] = assay: pepsin, temperature increased to 50 °C; settings: up to 19 h
[4] = tested on: Escherichia coli MDR 246415; format: cell-based; settings: MDR 246415, 24 h
Procedure: (§1) All experiments were performed in triplicate.

[5] = tested on: Escherichia coli MDR 208691; format: cell-based; settings: MDR 208691, 24 h
Procedure: as §1

[6] = tested on: Salmonella typhimurium SY5015; format: cell-based; settings: murium SY5015, 24 h
Procedure: as §1

[7] = tested on: Escherichia coli MDR 39255; format: cell-based; settings: MDR 39255, 24 h
Procedure: as §1

[8] = tested on: Escherichia coli MDR 239910; format: cell-based; settings: MDR 239910, 24 h
Procedure: as §1

[9] = tested on: eight Gram-negative strains; assay: MIC, broth microdilution; format: cell-based; settings: all eight strains tested; summary of Table 1
Procedure: as §1

thermolysin [10] = target: T1, thermolysin (Bacillus thermoproteolyticus, UniProt P00800); assay: Thermolysin stability assay; format: in vitro ADME; settings: thermolysin 1 mg/mL, 50 mM Tris pH 8, 0.5 mM CaCl2, 30 min at 70 °C, LC-MS; loss of 137 Da (Val11-Gly12)
T1 construct: purchased Sigma-Aldrich
T1 sequence (P00800 233-548): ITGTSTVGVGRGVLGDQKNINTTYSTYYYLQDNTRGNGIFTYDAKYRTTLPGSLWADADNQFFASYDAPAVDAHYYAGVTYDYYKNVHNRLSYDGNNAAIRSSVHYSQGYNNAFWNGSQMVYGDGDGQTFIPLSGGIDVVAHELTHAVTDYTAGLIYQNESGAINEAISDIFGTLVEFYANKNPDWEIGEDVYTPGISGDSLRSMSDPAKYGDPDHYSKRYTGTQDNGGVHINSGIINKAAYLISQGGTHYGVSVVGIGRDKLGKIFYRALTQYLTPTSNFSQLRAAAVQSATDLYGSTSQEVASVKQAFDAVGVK
Procedure: Materials and reagents. Methanol was purchased from Scharlau, while acetonitrile was obtained […]
while carboxypeptidase Y was purchased from Alfa Aesar. E. coli BL21 (DE3), which was used for heterologous expression, was purchased from Invitrogen. Bacterial strains were isolated from […]
Hinton Broth (MHB) was obtained from Scharlau (Spain).
10 µL of 0.5 M NaOH was added.
LC-MS. […] For the isolation and […]
in 400 µL of H 2O-ACN (1:1). […]
was stirred overnight at 40 °C.
MES, 1 mM CaCl 2 at pH 6.75).
The reaction was quenched by
Pepsin. […] 40 µL of pepsin
Figure S6. RP-HPLC chromatograms and ESI + spectra after 30 min of thermolysin treatment at 70 °C in 50 mM TRIS pH 8, 0.5 mM CaCl 2 buffer. a) New compound, b) native MccJ25 and c) co-injection of the two peptides after the thermolysin cleavage. Conditions: XBridge C18 2.5 µm (4.6 mm x 75 mm) reversed-phase analytical column; linear gradient from 30% to 60% of ACN over 8 […]

Bacterial biofilms = assay: Minimal biofilm eradication concentration (MBEC); format: cell-based; settings: in all cases; peg-lid biofilms, MHBCA, 24 h exposure at 37 °C, OD 620 nm, triplicate
Procedure: MBEC was determined as described by Moskowitz et al.. Bacterial biofilms were formed by immersing the pegs of a modified polystyrene microtiter lid into 96-well microtiter plates, each containing 200 µL of Muller-Hinton broth cation adjusted (MHBCA), followed by incubation at 37 °C for 24 h. Pegs were then gently rinsed in a 0.9% w/v NaCl solution and biofilms were exposed to a range of concentrations of antimicrobials for 24 h at 37 °C. Pegs were again rinsed with a 0.9% w/v NaCl solution and biofilms were removed by 10 min sonication. Recovered bacteria were incubated for 24 h at 37 °C. Optical densities at 620 nm were measured in order to determine MBEC values, defined as the lowest concentration of antimicrobial that prevented bacterial regrowth from the treated biofilm. All experiments were performed in triplicate.

pepsin [11] = target: pepsin (Sus scrofa, UniProt P00791); settings: for Hydrolysis by pepsin at 37 °C: pepsin 1 mg/mL in HCl 0.01 M, pH 2, 37 °C, several hours, LC-MS; for Cleavage by pepsin at 50 °C: pH 2, 50 °C, 19 h, RP-HPLC
Chain of pepsin (Sus scrofa, UniProt P00791) (P00791 60-385): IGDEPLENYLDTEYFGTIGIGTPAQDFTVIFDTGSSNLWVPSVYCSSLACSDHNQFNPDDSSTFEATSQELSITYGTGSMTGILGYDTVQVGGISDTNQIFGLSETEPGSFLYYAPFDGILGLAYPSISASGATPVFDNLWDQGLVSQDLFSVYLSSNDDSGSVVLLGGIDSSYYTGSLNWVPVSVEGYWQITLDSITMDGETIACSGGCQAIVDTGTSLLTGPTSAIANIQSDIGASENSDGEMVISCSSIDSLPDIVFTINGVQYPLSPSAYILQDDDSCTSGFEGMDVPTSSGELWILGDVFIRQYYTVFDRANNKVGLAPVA
Source text: Materials and reagents. Methanol was purchased from Scharlau, while acetonitrile was obtained from SDS. NaOH, 2,2,2-trifluoroethanol, pepsin, thermolysin were obtained from Sigma-Aldrich, while carboxypeptidase Y was purchased from Alfa Aesar. E. coli BL21 (DE3), which was used for heterologous expression, was purchased from Invitrogen. Bacterial strains were isolated from clinical specimens in the Microbiology Service of the Hospital Universitari de Bellvitge (Spain).
Collistin sulfate was supplied by Zhejiang Shenghua Biok Biology Co. LTD, China. Mueller-Hinton Broth (MHB) was obtained from Scharlau (Spain). […]
Then, 30 µL of NaOH 0.5 M (pH 12) was added, and the mixture was stirred overnight at 40 °C. […]
Pepsin. Purified peptide (20 µg) was dissolved in 150 µL HCl 0.01 M (pH 2). 40 µL of pepsin solution in HCl 0.01 M (1 mg/mL) was added to the peptide solution and incubated for 2-20 h at […]

[12] = tested on: chymotrypsin, trypsin and pepsin; settings: cited from earlier work
Procedure: (§2) Moreover, it is stable to highly denaturing conditions, such as 8 M urea and temperatures above 100 °C [6].

[13] = cited from earlier work
Procedure: as §2

trypsin = settings: cited from earlier work
pepsin [14] = settings: cited from earlier work
[15] = 0.5 M NaOH in H2O-ACN (1:1); settings: 40 °C, up to 48 h
chymotrypsin = settings: cited from earlier work
[16] = tested on: Salmonella enterica ATCC 49214; settings: broth microdilution, MHB, 37 °C, 24 h, visual turbidity, triplicate
Procedure: (§3) MIC values were determined by the broth microdilution method and interpreted following the guidelines of the Clinical & Laboratory Standards Institute (CLSI) and European Committee on Antimicrobial Susceptibility Testing (EUCAST). The different strains were grown in Mueller-Hinton broth (MHB) overnight at 37 °C with shaking at 200 rpm. The bacterial cultures were then adjusted to OD625nm of 0.08–0.1 and diluted 1:100 in fresh MHB medium. Next, 5 µL of each diluted suspension was added to 96-well plates previously filled with MHB and serially diluted peptides. […] All experiments were performed in triplicate.

[17] = tested on: Salmonella enterica ATCC 13076; settings: broth microdilution, MHB, 37 °C, 24 h, visual turbidity, triplicate
Procedure: as §3

Row | cleaved bond (thermolysin [1]) | cleaved bond (carboxypeptidase Y) | not cleaved (pepsin [3]) | Molecule | not cleaved (pepsin [2]) | Minimum inhibitory concentration (MIC) [5] | Minimum inhibitory concentration (MIC) [6] | Minimum inhibitory concentration (MIC) [7] | Minimum inhibitory concentration (MIC) [8] | Outcome of thermolysin treatment (thermolysin [10]) | Minimal biofilm eradication concentration (MBEC) (Bacterial biofilms) | Hydrolysis by pepsin at 37 °C (pepsin [11]) | Cleavage by pepsin at 50 °C (pepsin [11]) | further results
1 | Phe10-Val11; also recorded: Gly12-Ile13 | Phe10-Val11; also recorded: Val11-Gly12 | no cleavage was detected after 19 h | GGAGHVPEYFVGIGTPISFYG [new compound] | no hydrolysis was observed, even after several hours at pH 2 at 37 °C |  |  |  |  |  |  |  |  | 
2 |  |  |  | CC[C@H](C)[C@H](NC(=O)CNC(=O)[C@H](NC(=O)[C@H](Cc1ccccc1)NC(=O)[C@H](Cc1ccc(O)cc1)NC(=O)[C@@H]1CCC(=O)NCC(=O)NCC(=O)N[C@@H](C)C(=O)NCC(=O)N[C@@H](Cc2c[nH]cn2)C(=O)N[C@@H](C(C)C)C(=O)N2CCC[C@H]2C(=O)N1)C(C)C)C(=O)NCC(=O)N[C@H](C(=O)N1CCC[C@H]1C(=O)N[C@H](C(=O)N[C@@H](CO)C(=O)N[C@@H](Cc1ccccc1)C(=O)N[C@@H](Cc1ccc(O)cc1)C(=O)NCC(=O)O)[C@@H](C)CC)[C@@H](C)O [New Compound] (GGAGHVPEYF[dV]GIGTPISFYG-OH; lactam N-8) |  | >128 mg/L | >128 mg/L | >256 mg/L | >128 mg/L | double cleavage between Phe10-Val11 and Gly12-Ile13 | greater than 128 μg/mL | no hydrolysis was observed | no cleavage was detected | Minimum inhibitory concentration (MIC) [4]: >128 mg/L; MIC values in all cases [9]: higher than 128 μg/mL
3 |  |  |  | CC[C@H](C)[C@H](NC(=O)CNC(=O)[C@@H](NC(=O)[C@H](Cc1ccccc1)NC(=O)[C@H](Cc1ccc(O)cc1)NC(=O)[C@@H]1CCC(=O)NCC(=O)NCC(=O)N[C@@H](C)C(=O)NCC(=O)N[C@@H](Cc2cnc[nH]2)C(=O)N[C@@H](C(C)C)C(=O)N2CCC[C@H]2C(=O)N1)C(C)C)C(=O)NCC(=O)N[C@H](C(=O)N1CCC[C@H]1C(=O)N[C@H](C(=O)N[C@@H](CO)C(=O)N[C@@H](Cc1ccccc1)C(=O)N[C@@H](Cc1ccc(O)cc1)C(=O)NCC(=O)O)[C@@H](C)CC)[C@@H](C)O [Native MccJ25, Microcin J25] (GGAGHVPEYFVGIGTPISFYG-OH; lactam N-8) |  |  |  |  |  | double cleavage between Phe10-Val11 and Gly12-Ile13 |  | no hydrolysis was observed | no cleavage was detected | Thermal and proteolytic stability against several proteases [12]: high thermal and proteolytic stability; Stability to highly denaturing conditions [13]: stable
4 | Gly12-Ile13; also recorded: Phe10-Val11 | Phe10-Val11; also recorded: Val11-Gly12 | no cleavage was detected after 19 h | GGAGHVPEYFVGIGTPISFYG [MccJ25] | no hydrolysis was observed, even after several hours at pH 2 at 37 °C |  |  |  |  |  |  |  |  | not cleaved (trypsin): high thermal and proteolytic stability; not cleaved (pepsin [14]): high thermal and proteolytic stability; fragment found [15]: new compound (epimerization of Val11); not cleaved (chymotrypsin): high thermal and proteolytic stability
5 |  |  |  | CC[C@H](C)[C@H](NC(=O)CNC(=O)[C@@H](NC(=O)[C@H](Cc1ccccc1)NC(=O)[C@H](Cc1ccc(O)cc1)NC(=O)[C@@H]1CCC(=O)NCC(=O)NCC(=O)N[C@@H](C)C(=O)NCC(=O)N[C@@H](Cc2c[nH]cn2)C(=O)N[C@@H](C(C)C)C(=O)N2CCC[C@H]2C(=O)N1)C(C)C)C(=O)NCC(=O)N[C@H](C(=O)N1CCC[C@H]1C(=O)N[C@H](C(=O)N[C@@H](CO)C(=O)N[C@@H](Cc1ccccc1)C(=O)N[C@@H](Cc1ccc(O)cc1)C(=O)NCC(=O)O)[C@@H](C)CC)[C@@H](C)O [Native MccJ25, Microcin J25] (GGAGHVPEYFVGIGTPISFYG-OH; lactam N-8) |  | >128 mg/L | >128 mg/L | 0.5 mg/L (≈ 0.237 µM) | >128 mg/L |  | greater than 128 μg/mL |  |  | Minimum inhibitory concentration (MIC) [16]: 0.8 mg/L (≈ 0.38 µM); Minimum inhibitory concentration (MIC) [17]: <0.0625 mg/L
